These results are taken from US8785600B2, “Anti-GCC antibody molecules and related compositions and methods” (Millennium Pharmaceuticals, Inc., priority 2009, dated 2014).

Where “and” joins values, the source holds several entries; their conditions need not be identical. Identical values can stand only once.

In one experiment the target is T1, rat GCC (Rattus norvegicus, UniProt P23897).
T1 sequence (P23897 23-1072): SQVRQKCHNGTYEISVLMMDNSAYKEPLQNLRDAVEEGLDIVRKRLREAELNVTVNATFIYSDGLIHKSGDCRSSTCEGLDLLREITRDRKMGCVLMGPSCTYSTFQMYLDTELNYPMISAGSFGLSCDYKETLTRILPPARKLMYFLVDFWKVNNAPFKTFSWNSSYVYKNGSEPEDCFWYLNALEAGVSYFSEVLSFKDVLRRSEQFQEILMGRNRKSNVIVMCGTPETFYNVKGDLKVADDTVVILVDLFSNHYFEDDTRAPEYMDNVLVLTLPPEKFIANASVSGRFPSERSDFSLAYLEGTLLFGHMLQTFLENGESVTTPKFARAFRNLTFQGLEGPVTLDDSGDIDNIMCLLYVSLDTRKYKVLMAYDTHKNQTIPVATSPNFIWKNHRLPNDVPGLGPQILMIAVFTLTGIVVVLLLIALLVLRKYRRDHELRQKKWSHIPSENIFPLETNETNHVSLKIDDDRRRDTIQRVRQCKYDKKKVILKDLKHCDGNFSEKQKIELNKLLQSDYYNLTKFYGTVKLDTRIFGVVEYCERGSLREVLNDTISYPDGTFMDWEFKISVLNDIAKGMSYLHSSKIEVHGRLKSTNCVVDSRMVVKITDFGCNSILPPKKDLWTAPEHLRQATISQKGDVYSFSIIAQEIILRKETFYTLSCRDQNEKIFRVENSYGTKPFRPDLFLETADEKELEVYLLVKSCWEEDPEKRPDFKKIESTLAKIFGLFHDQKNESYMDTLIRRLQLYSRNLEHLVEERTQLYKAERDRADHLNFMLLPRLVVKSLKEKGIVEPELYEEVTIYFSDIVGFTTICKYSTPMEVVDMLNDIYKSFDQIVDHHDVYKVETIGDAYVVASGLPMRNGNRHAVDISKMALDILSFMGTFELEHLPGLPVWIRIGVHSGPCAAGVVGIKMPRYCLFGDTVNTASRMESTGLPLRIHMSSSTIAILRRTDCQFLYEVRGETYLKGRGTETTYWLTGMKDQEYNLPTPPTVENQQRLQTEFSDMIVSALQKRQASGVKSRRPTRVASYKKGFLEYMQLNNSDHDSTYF
The experiment is described as follows: Cross-reactivity with GCC orthologs (ELISA). The experiment is classed as binding. From the text: FIG. 4 depicts ELISA binding assays to test antibody cross-reactivity of GCC orthologs.

Experiment [1] has as its target T2, GCC ECD truncation mutants expressed in 293 cells (Homo sapiens, UniProt P25092).
T2 construct: Truncation mutants of the GCC ECD were generated (FL mature peptide and 8 truncations); expressed in transfected cells; host or cells: 293 cells (lysates, immunoprecipitation then anti-FLAG western blot)
The experiment is described as follows: Binding to GCC ECD truncation mutants (IP / Western blot). The following applies: Δ1-32.

The next experiment has as its system CT26 hGCC/luc #32 cells. The experiment is described as follows: Pilot efficacy study with naked antibody in CT26 hGCC/luc #32 disseminated model. Conditions: for Lung weight, T test P vs. vehicle: end of study.
For a further experiment, the system named is GCC-ECD-Fc (TOK107-hIg). The experiment in a line: BIACORE T100 affinity measurement. The experiment is classed as binding, human. The following applies: for ka (M^−1s^−1) / kd (s^−1): Avg. (95% Conf. Int.); for ka / kd: single replicates, immobilized mAb, 22° C. As to the method:
Step 1: MAb 5F9 (Prep A) was diluted to 20 μg/mL in 10 mM sodium acetate, pH 4.0 and Reference 5F9 MAb (Prep B) was diluted to 10 μg/mL in 10 mM sodium acetate, pH 4.0. Each mAb was covalently immobilized to several CM4 BIACORE chips using standard amine coupling. For each CM4 chip prepared, Prep A 5F9 was immobilized over two flow cells at around 75-100 RU while Prep B 5F9 was immobilized to one flow cell at around 70-80 RU. The remaining fourth flow cell of each CM4 chip was used as the reference flow cell.
Step 2: The stock concentration of GCC-ECD-Fc (TOK107-hIg) was determined using the methods detailed by Pace et al. in Protein Science, 4:2411 (1995), and Pace and Grimsley in Current Protocols in Protein Science 3.1.1-3.1.9 (2003).
Step 3: For each prepared CM4 chip described in Step 1, GCC-ECD-Fc was injected for 2 minutes at a concentration range of 202 nM-1.6 nM (2× serial dilution) followed by a 7 minute dissociation. Samples were randomly injected in triplicate with several buffer inject cycles interspersed for double referencing. […] A flow rate of 100 μL/min was used for all experiments and all surfaces were regenerated with a 20 second pulse of 10 mM Glycine-HCl (pH 2.0). All samples were prepared in the running buffer which was Hepes-buffered saline, 0.005% polysorbate 20, pH 7.4 (HBS-P) with 100 μg/mL of BSA added.
Step 4: All sensorgram (plot of surface plasmon resonance vs time) data were processed with Scrubber 2.0 software (BioLogic Software, Campbell, Australia) and globally fit to a 1:1 interaction model including a term for the mass transport constant km using CLAMP™ software (Myszka and Morton Trends Biochem. Sci. 23:149-150 (1998)).
The 1:1 model provided a very good fit to the data as long as the mAb immobilization levels were kept low enough so that the Rmax resulting from the global analysis of the sensorgram data was at least below 12 RU for each surface. […] Data from two flow cells of GCC-ECD-Fc binding to Prep A 5F9 from the same CM4 chip were simultaneously fit whenever possible, however. […] This isn't surprising due to the fact that GCC-ECD-Fc is a bivalent construct and a higher surface density of immobilized mAb most likely increases the probability that the GCC-ECD-Fc binds avidly to the surface. Replicates reported for this study include only those data that fit well to the 1:1 interaction model. The resulting KD's and rate constants of all replicates for Prep A 5F9 and the Prep B reference mAb are listed in Table 9 and Table 10, respectively.
A general note: SPR reads the build-up and loss of mass on a sensor chip optically.

Chain of GCC-ECD-Fc (TOK107-hIg) (as listed by the source): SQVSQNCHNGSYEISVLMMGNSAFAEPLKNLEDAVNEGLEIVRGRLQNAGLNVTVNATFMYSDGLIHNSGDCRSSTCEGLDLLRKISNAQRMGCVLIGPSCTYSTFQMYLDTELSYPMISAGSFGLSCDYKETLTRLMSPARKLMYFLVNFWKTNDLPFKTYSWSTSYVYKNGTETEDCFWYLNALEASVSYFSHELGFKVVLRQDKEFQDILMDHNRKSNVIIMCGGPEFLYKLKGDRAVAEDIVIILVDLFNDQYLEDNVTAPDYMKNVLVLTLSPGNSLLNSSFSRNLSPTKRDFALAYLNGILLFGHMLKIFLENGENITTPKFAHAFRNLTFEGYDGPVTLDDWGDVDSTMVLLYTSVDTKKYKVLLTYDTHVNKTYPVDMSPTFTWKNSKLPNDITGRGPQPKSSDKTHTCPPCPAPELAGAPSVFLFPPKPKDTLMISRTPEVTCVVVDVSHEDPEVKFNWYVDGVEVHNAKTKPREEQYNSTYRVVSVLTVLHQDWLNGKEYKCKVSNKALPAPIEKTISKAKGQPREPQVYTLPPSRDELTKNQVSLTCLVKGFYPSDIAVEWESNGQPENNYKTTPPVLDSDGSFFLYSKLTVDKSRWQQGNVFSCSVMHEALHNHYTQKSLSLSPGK
T2 sequence (P25092 33-430, change not shown): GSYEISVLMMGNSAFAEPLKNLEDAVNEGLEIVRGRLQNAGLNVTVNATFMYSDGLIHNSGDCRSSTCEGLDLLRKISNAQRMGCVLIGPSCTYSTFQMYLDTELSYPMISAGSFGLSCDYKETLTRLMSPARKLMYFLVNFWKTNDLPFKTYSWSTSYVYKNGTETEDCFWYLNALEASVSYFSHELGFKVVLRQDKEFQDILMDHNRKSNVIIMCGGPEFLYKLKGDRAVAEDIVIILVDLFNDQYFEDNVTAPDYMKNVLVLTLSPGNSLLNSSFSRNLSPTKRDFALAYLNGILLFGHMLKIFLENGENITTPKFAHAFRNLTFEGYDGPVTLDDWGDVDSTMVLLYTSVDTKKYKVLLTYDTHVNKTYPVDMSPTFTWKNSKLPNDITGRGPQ

Regarding “5F9: Human anti-GCC mAb (IgG2, kappa) of hybridoma 5F9, ATCC PTA-8132; VH SEQ ID NO:18, VL SEQ ID NO:20; also engineered as IgG1”, the “Binding to rat GCC” value with rat GCC is listed as “does not bind”. In addition, the “Binding to GCC ECD truncation mutant” value in experiment [1] is “binds cells with the Δ1-32 mutation”. For the same substance, in the experiment on CT26 hGCC/luc #32 cells (10 mg/kg), the “Lung weight, T test P vs. vehicle” value was below 0.01. In the experiment with CT26 hGCC/luc #32 cells (40 mg/kg), the “In vivo MRI of lungs” value was “normal lung presentation was seen without evidence of tumor” and the “Lung weight, T test P vs. vehicle” value is below 0.05. In the experiment on CT26 hGCC/luc #32 cells (40 mg/kg and 10 mg/kg, 1×10^5 cells/mouse, day 34p.i, vs vehicle), the “T/C (treatment/control)” value was 0.04 to 0.05. The “T/C compared to the 209 group” value in the experiment with CT26 hGCC/luc #32 cells (1×10^5 cells/mouse, day 34p.i) is reported as 0.18 to 0.14. The “Benefit in 5×10^5 groups” value in the experiment on CT26 hGCC/luc #32 cells (5×10^5 cells/mouse) is “No benefit was seen”. For the same substance, in the experiment with GCC-ECD-Fc (TOK107-hIg) (listed as Prep A 5F9), the “ka (M^−1s^−1)” value is 1.10 (0.13) × 10^5 M^−1s^−1; the “kd (s^−1)” value was 1.46 (0.59) × 10^−5 s^−1; the “ka” value is 96400 M⁻¹ s⁻¹ and 106000 M⁻¹ s⁻¹ and 120000 M⁻¹ s⁻¹ and 107000 M⁻¹ s⁻¹ and 122000 M⁻¹ s⁻¹; the “kd” value was 1.77e-05 s⁻¹ and 1.19e-05 s⁻¹ and 1.1e-05 s⁻¹ and 2.15e-05 s⁻¹ and 1.11e-05 s⁻¹. In the experiment with GCC-ECD-Fc (TOK107-hIg) (listed as Prep B 5F9), the “ka (M^−1s^−1)” value is reported as 1.07 (0.25) × 10^5 M^−1s^−1; the “kd (s^−1)” value was 1.13 (0.54) × 10^−5 s^−1; the “ka” value is 96800 M⁻¹ s⁻¹ and 120000 M⁻¹ s⁻¹ and 90900 M⁻¹ s⁻¹ and 121000 M⁻¹ s⁻¹; the “kd” value is 7.64e-06 s⁻¹ and 1.24e-05 s⁻¹ and 9.57e-06 s⁻¹ and 1.54e-05 s⁻¹.
